# According to article PMC6792352, “Limited Chemical Structural Diversity Found to Modulate Thyroid Hormone Receptor in the Tox21 Chemical Library” (Environmental Health Perspectives, 2019):
# Counter-ions that a name gives are not always drawn.
# Test: in vitro
# Settings: rat, gh3-tre-luc cells, AC50 (uM) modified / 1000
row,Structure (SMILES),CC50 at 24 h
1,CC1(c2ccccc2)OC(C(=O)O)=CC1=O (centres unmarked) [Acifran],> 50 µM
2,CSc1nc2cc(Cl)c(Oc3cccc(Cl)c3Cl)cc2[nH]1 [Triclabendazole],28.5 µM
3,CS(=O)(=O)O [Methanesulfonic acid],> 90 µM
4,CC1=C[C@H](O)CC(C)(C)[C@H]1/C=C/C(C)=C/C=C/C(C)=C/C=C/C=C(C)/C=C/C=C(C)/C=C/C1=C(C)C[C@@H](O)CC1(C)C [Lutein],28.4 µM
5,O=C1Nc2ccccc2C1(c1ccc(O)cc1)c1ccc(O)cc1 [Oxyphenisatin],61.2 µM
6,CC#Cc1cc(C)nc(Nc2ccccc2)n1 [Mepanipyrim],> 90 µM
7,"COc1cc2nc(O)nc(O)c2cc1OC [6,7-Dimethoxyquinazoline-2,4(1H,3H)-dione]",> 20 µM
8,"CCCCCCCCCCCCCCN(C)C [N,N-Dimethyltetradecylamine]",> 20 µM
9,CN1C(=O)c2ccccc2C1=O [N-Methylphthalimide],> 90 µM
10,CCCc1cc(C(N)=S)ccn1 [Prothionamide],> 50 µM
11,C#C[C@]1(O)CC[C@H]2[C@@H]3CCC4=Cc5oncc5C[C@]4(C)[C@H]3CC[C@@]21C [Danazol],57.4 µM
12,OC[C@@H](O)C(O)[C@@H](O)CO (some centres unmarked) [Xylitol],> 90 µM
13,CC(C)CC#N [Isovaleronitrile],> 90 µM
14,"O=C(O)Cc1ccc(Cl)cc1Cl [2,4-Dichlorophenylacetic acid]",> 90 µM
15,CCCCOCCOCCOC(C)=O [2-(2-Butoxyethoxy)ethyl acetate],> 90 µM
16,C=CC(N)=O [Acrylamide],> 90 µM
17,Cc1cccc(NC(=S)N(C)C)c1 [Methiuron],> 90 µM

row,Structure (SMILES),CC50 at 24 h
1,c1ccc(Cc2ccccc2)cc1 [Diphenylmethane],> 90 µM
2,CCOC(=O)c1ncn2c1CN(C)C(=O)c1c(I)cccc1-2 [Iomazenil],> 50 µM
3,"O=S(=O)(O)OC[C@H]1O[C@@](COS(=O)(=O)O)(O[C@H]2O[C@H](COS(=O)(=O)O)[C@@H](OS(=O)(=O)O)[C@H](OS(=O)(=O)O)[C@H]2OS(=O)(=O)O)[C@@H](OS(=O)(=O)O)[C@@H]1OS(=O)(=O)O [Sucrose octasulfate, sodium salt]",> 50 µM
4,CCCCN [Butylamine],> 50 µM
5,CCCCCCCCCCCCCCCCCBr [1-Bromoheptadecane],> 20 µM
6,CCCCCCC1CCOC1=O (stereo not drawn) [alpha-Hexyl-gamma-butyrolactone],> 90 µM
7,Cc1ccccc1OCC(O)CO (centres unmarked) [Mephenesin],> 50 µM
8,CCOC(=O)c1ccccc1C [Ethyl 2-methylbenzoate],> 90 µM
9,SC1CCCC1 [Cyclopentanethiol],> 90 µM
10,CN1Cc2c(N)cccc2C(c2ccccc2)C1 (centres unmarked) [Nomifensine],38.8 µM
11,"Oc1cc(O)cc(O)c1 [1,3,5-Trihydroxybenzene dihydrate]",> 50 µM
12,Cc1nc(Nc2ncc(C(=O)Nc3c(C)cccc3Cl)s2)cc(N2CCN(CCO)CC2)n1 [Dasatinib],15.8 µM
13,NC1(c2ccc(-c3nc4ccn5c(=O)[nH]nc5c4cc3-c3ccccc3)cc2)CCC1 [MK-2206],16.8 µM
14,O=C(O)c1cc(C(=O)O)cc(S(=O)(=O)O)c1 [Sodium 5-sulfoisophthalate],> 90 µM
15,COS(C)(=O)=O [Methyl methanesulfonate],> 100 µM
16,C=C1/C(=C\C=C2/CCC[C@]3(C)[C@@H]([C@H](C)CCCC(C)C)CC[C@@H]23)C[C@@H](O)C[C@@H]1O [Alfacalcidol],14.8 µM

# Same assay, conditions: rat, gh3-tre-luc cells, AC50 (uM) modified / 1000, Tox21_110001=Tox21_110628; viability, 1 nM T3 present, 24 h
row,Structure (SMILES),CC50 at 24 h
1,CCOC(=O)c1cncn1[C@H](C)c1ccccc1 [Etomidate],> 20 µM

# Same assay, conditions: rat, gh3-tre-luc cells, AC50 (uM) modified / 1000, Tox21_110001=Tox21_111290; viability, 1 nM T3 present, 24 h
row,Structure (SMILES),CC50 at 24 h
1,CCOP(=S)(OCC)Oc1ccc2c(C)c(Cl)c(=O)oc2c1 [Coumaphos],> 50 µM

# Same assay, conditions: rat, gh3-tre-luc cells, AC50 (uM) modified / 1000, Tox21_110001=Tox21_112258; viability, 1 nM T3 present, 24 h
row,Structure (SMILES),CC50 at 24 h
1,O=C(C[S+]([O-])C(c1ccccc1)c1ccccc1)NO (centres unmarked) [Adrafinil],> 50 µM

# Same assay, conditions: rat, gh3-tre-luc cells, AC50 (uM) modified / 1000, Tox21_110001=Tox21_112931; viability, 1 nM T3 present, 24 h
row,Structure (SMILES),CC50 at 24 h
1,CCc1cc2c(s1)-n1c(C)nnc1CN=C2c1ccccc1Cl [Etizolam],> 50 µM

# Same assay, conditions: rat, gh3-tre-luc cells, AC50 (uM) modified / 1000, Tox21_110001=Tox21_201656; viability, 1 nM T3 present, 24 h
row,Structure (SMILES),CC50 at 24 h
1,O=C1C(Cl)=C(Cl)C(=O)C(Cl)=C1Cl [Chloranil],12.7 µM

# Same assay, conditions: rat, gh3-tre-luc cells, AC50 (uM) modified / 1000, Tox21_110001=Tox21_201841; viability, 1 nM T3 present, 24 h
row,Structure (SMILES),CC50 at 24 h
1,CCOP(=S)(OCC)Oc1ccc2c(C)c(Cl)c(=O)oc2c1 [Coumaphos],> 90 µM

# Same assay, conditions: rat, gh3-tre-luc cells, AC50 (uM) modified / 1000, Tox21_110001=Tox21_202582; viability, 1 nM T3 present, 24 h
row,Structure (SMILES),CC50 at 24 h
1,"Nc1c(Br)cc(Br)c2c1C(=O)c1ccccc1C2=O [1-Amino-2,4-dibromoanthraquinone]",> 20 µM

# Same assay, conditions: rat, gh3-tre-luc cells, AC50 (uM) modified / 1000, Tox21_110001=Tox21_202862; viability, 1 nM T3 present, 24 h
row,Structure (SMILES),CC50 at 24 h
1,CCCCCCI [1-Iodohexane],> 90 µM

# Same assay, conditions: rat, gh3-tre-luc cells, AC50 (uM) modified / 1000, Tox21_110001=Tox21_202896; viability, 1 nM T3 present, 24 h
row,Structure (SMILES),CC50 at 24 h
1,O=C/C=C/c1ccco1 [(E)-3-(2-Furyl)acrolein],> 90 µM

# Same assay, conditions: rat, gh3-tre-luc cells, AC50 (uM) modified / 1000, Tox21_110001=Tox21_301354; viability, 1 nM T3 present, 24 h
row,Structure (SMILES),CC50 at 24 h
1,O=[N+]([O-])c1ccc(Oc2ccc(C(F)(F)F)cc2[N+](=O)[O-])cc1 [Fluorodifen],> 90 µM

# Same assay, conditions: rat, gh3-tre-luc cells, AC50 (uM) modified / 1000, Tox21_110001=Tox21_303021; viability, 1 nM T3 present, 24 h
row,Structure (SMILES),CC50 at 24 h
1,O=C1C(Cl)=C(Cl)C(=O)C(Cl)=C1Cl [Chloranil],20.3 µM
